Experimental data taken from patent US6596889B1, “Nitrates of bis-platinum complexes with polyamine ligands” (Novuspharma S.p.A., priority 1999, dated 2003).
Structures can show the parent of a compound that is named as a salt.

Assay: HPLC stability following heating at 40° C. for 12 days under atmospheric pressure
Assay type: physicochemical
Method: column: Lichrospher RP8 (5 μm), 125×4 mm
The following table reports the HPLC data concerning the stability of Compound 1 and of Compound A (prepared as described in example 16 of WO 98/03519) following heating at 40° C. for 12 days under atmospheric pressure.
The used chromatographic method is that described in Example 3 and Example 4. The values of […] are in percent area.

[1] = 12 days 40° C., atmospheric pressure

[NH2][Pt+]([NH2])([Cl])[NH]CCC[NH2+]CCCC[NH2+]CCC[NH][Pt+]([NH2])([NH2])[Cl] [Compound 1, bis{trans(diammine)(chloro)platinum(II)}-μ-(1,12-diamino-4,9-diazadodecane-N^1, N^12) dinitrate salt.2HNO3]
HPLC mean peak area [1]: 98.4 percent area
main impurity, retention time 7 min, HPLC area [1]: 0.1 percent area
main impurity, retention time 8 min, HPLC area [1]: 0.1 percent area
main impurity, retention time 12 min, HPLC area [1]: 0.2 percent area
main impurity, retention time 14 min, HPLC area [1]: 0.9 percent area
main impurity, retention time 30 min, HPLC area [1]: <0.1 percent area
main impurity, retention time 31 min, HPLC area [1]: 0.2 percent area
HPLC mean peak area (t = 0): 98.5 percent area
main impurity, retention time 7 min, HPLC area (t = 0): 0.1 percent area
main impurity, retention time 8 min, HPLC area (t = 0): 0.1 percent area
main impurity, retention time 12 min, HPLC area (t = 0): 0.1 percent area
main impurity, retention time 14 min, HPLC area (t = 0): 0.8 percent area
main impurity, retention time 30 min, HPLC area (t = 0): <0.1 percent area

bis{trans(diammine)(chloro)platinum(II)}-μ-(1,12-diamino-4,9-diazadodecane-N^1, N^12)dichloride salt.2HCl [Compound A]
HPLC mean peak area [1]: 89.8 percent area
main impurity, retention time 7 min, HPLC area [1]: 0.8 percent area
main impurity, retention time 8 min, HPLC area [1]: 1.6 percent area
main impurity, retention time 12 min, HPLC area [1]: 0.6 percent area
main impurity, retention time 14 min, HPLC area [1]: 0.8 percent area
main impurity, retention time 30 min, HPLC area [1]: 2.8 percent area
main impurity, retention time 31 min, HPLC area [1]: 1.7 percent area
HPLC mean peak area (t = 0): 92.5 percent area
main impurity, retention time 7 min, HPLC area (t = 0): 0.1 percent area
main impurity, retention time 8 min, HPLC area (t = 0): 0.2 percent area
main impurity, retention time 12 min, HPLC area (t = 0): 0.3 percent area
main impurity, retention time 14 min, HPLC area (t = 0): 1.3 percent area
main impurity, retention time 30 min, HPLC area (t = 0): 2.3 percent area
main impurity, retention time 31 min, HPLC area (t = 0): 0.7 percent area
